Like-named read-outs stand apart in the source and are kept apart here.
Assay: APP processing: AlphaLisa assay of secreted Aβ40 and Aβ42 from SP4CT cells
Type: cell-based
Conditions: Homo sapiens, SH-SY5Y cells expressing amyloid β protein (SP4CT cells)
Procedure, shortened: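 Secreted Aβ40 and Aβ42 were quantified separately by AlphaLisa luminescence, pairing streptavidin donor beads bearing biotinylated 4G8 with G210 or 12F4 acceptor beads. Samples were conditioned media from compound-treated SH-SY5Y cells expressing amyloid β protein (SP4CT).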

[1] = read-out: IC50, inhibition of production of Aβ40 peptide
[2] = read-out: IC50, inhibition of production of Aβ42 peptide

SMILES	IC50 [1] [nM]	IC50 [2] [nM]
CCn1nc(-c2cccc(C(C)(C)NS(=O)(=O)CC(F)(F)F)c2)cc1Oc1ccc(C(C)F)cc1 (stereo not shown) [Example 68, N-[1-(3-{1-ethyl-5-[4-(1-fluoroethyl)phenoxy]-1H-pyrazol-3-yl}phenyl)-1-methylethyl]-2,2,2-trifluoroethanesulfonamide]	< 200	< 200
CCn1nc(-c2cccc(C3(NS(=O)(=O)NC)COC3)c2)cc1Oc1ccc(C(F)(F)F)cc1 [Example 97, N-[3-(3-{1-ethyl-5-[4-(trifluoromethyl)phenoxy]-1H-pyrazol-3-yl}phenyl)oxetan-3-yl]-N′-methylsulfamide]	< 200	< 200
CCn1nc(-c2cccc(C(C)(C)NS(=O)(=O)CC(F)(F)F)c2)cc1Oc1ccc(CN2CCN(C(C)=O)CC2)cc1 [Example 93, N-{1-[3-(5-{4-[(4-acetylpiperazin-1-yl)methyl]phenoxy}-1-ethyl-1H-pyrazol-3-yl)phenyl]-1-methylethyl}-2,2,2-trifluoroethanesulfonamide]	< 200	< 200
CCn1nc(-c2cccc(C3(NS(=O)(=O)CC(F)(F)F)CC3)c2)cc1Oc1ccc(C(F)(F)F)cc1 [Example 28, N-[1-(3-{1-ethyl-5-[4-(trifluoromethyl)phenoxy]-1H-pyrazol-3-yl}phenyl)cyclopropyl]-2,2,2-trifluoroethanesulfonamide]	< 200	< 200
CCn1nc(-c2cccc(C(C)(C)NS(=O)(=O)CC(F)(F)F)c2)c(C=O)c1Oc1ccc(C(F)(F)F)cc1 [Example 118, N-[2-(3-{1-ethyl-4-formyl-5-[4-(trifluoromethyl)phenoxy]-1H-pyrazol-3-yl}phenyl)propan-2-yl]-2,2,2-trifluoroethanesulfonamide]	< 200	< 200
CCn1nc(Oc2ccc(C(F)(F)F)cc2)cc1-c1ccc2c(c1)CC(NS(=O)(=O)NCC(C)C)C2 (stereo not shown) [Example 124, N-(5-{1-ethyl-3-[4-(trifluoromethyl)phenoxy]-1H-pyrazol-5-yl}-2,3-dihydro-1H-inden-2-yl)-N′-isobutylsulfamide]	< 200	< 200
CCn1nc(-c2cccc(C(C)(C)NS(=O)(=O)CC(F)(F)F)c2)cc1Oc1ccc(CNc2cccnc2)cc1 [Example 85, N-{1-[3-(1-ethyl-5-{4-[(pyridin-3-ylamino)methyl]phenoxy}-1H-pyrazol-3-yl)phenyl]-1-methylethyl}-2,2,2-trifluoroethanesulfonamide]	< 200	< 200

Other lines, results leading:

IC50 [1] [nM]	IC50 [2] [nM]	SMILES
< 200	< 200	CCn1nc(-c2cccc(C(C)(C)NS(=O)(=O)CC(F)(F)F)c2)cc1Oc1ccc(C#N)cc1 [Example 108, N-(1-{3-[5-(4-cyanophenoxy)-1-ethyl-1H-pyrazol-3-yl]phenyl}-1-methylethyl)-2,2,2-trifluoroethanesulfonamide]
< 200	< 200	CCn1nc(Oc2ccc(C(F)(F)F)cc2)cc1-c1cccc(C(C)(C)NS(=O)(=O)N2CCCC2)c1 [Example 26, N-[1-(3-{1-ethyl-3-[4-(trifluoromethyl)phenoxy]-1H-pyrazol-5-yl}phenyl)-1-methylethyl]pyrrolidine-1-sulfonamide]
< 200	< 200	CCn1nc(Oc2ccc(C(F)(F)F)cc2)c(Cl)c1-c1cccc(C(C)(C)NS(=O)(=O)CC(F)(F)F)c1 [Example 113, N-[2-(3-{4-chloro-1-ethyl-3-[4-(trifluoromethyl)phenoxy]-1H-pyrazol-5-yl}phenyl)propan-2-yl]-2,2,2-trifluoroethanesulfonamide]
< 200	< 200	CCn1nc(Oc2ccc(C(F)(F)F)cc2)cc1-c1cccc(C2(NS(=O)(=O)CC(F)(F)F)CC2)c1 [Example 31, N-[1-(3-{1-ethyl-3-[4-(trifluoromethyl)phenoxy]-1H-pyrazol-5-yl}phenyl)cyclopropyl]-2,2,2-trifluoroethanesulfonamide]
